Results: patent US4226878A, “Imidazole derivative” (Kissei Pharmaceutical Co., Ltd., priority 1978, dated 1980)
Where a name gives a salt, the structure may show the parent alone.

test system: thromboxane synthetase; test: not given; conditions: literature reports; cited from earlier work

Compound	inhibitory effect on thromboxane synthetase (in words, prior art)
CC(C)c1ccccc1-n1ccnc1 [1-(2-isopropylphenyl)imidazole]	strong inhibitory effect
COC(=O)CCCCCCn1ccnc1 [1-(6-methoxycarbonylhexyl) imidazole]	inhibitory effect
c1ccc(Cn2ccnc2)cc1 [1-benzylimidazole]	strong inhibitory effect
CCCCCCCCCCn1ccnc1 [1-decylimidazole]	strong inhibitory effect
CCCCCCCCCn1ccnc1 [1-nonylimidazole]	strong inhibitory effect
c1c[nH]cn1 [imidazole]	very weak inhibitory effect

target: T1, thromboxane synthetase from rabbit platelet microsomes (Oryctolagus cuniculus, UniProt G1TAZ9); test: inhibition of thromboxane synthetase from rabbit platelet microsomes (conversion of prostaglandin H2 into thromboxane B2); assay type: biochemical; conditions: read-out: molar concentration producing a 50% inhibition of thromboxane synthetase
T1 construct: thromboxane synthetase from rabbit platelet microsomes; from tissue; host or cells: rabbit platelet microsomes
T1 sequence (G1TAZ9 1-530): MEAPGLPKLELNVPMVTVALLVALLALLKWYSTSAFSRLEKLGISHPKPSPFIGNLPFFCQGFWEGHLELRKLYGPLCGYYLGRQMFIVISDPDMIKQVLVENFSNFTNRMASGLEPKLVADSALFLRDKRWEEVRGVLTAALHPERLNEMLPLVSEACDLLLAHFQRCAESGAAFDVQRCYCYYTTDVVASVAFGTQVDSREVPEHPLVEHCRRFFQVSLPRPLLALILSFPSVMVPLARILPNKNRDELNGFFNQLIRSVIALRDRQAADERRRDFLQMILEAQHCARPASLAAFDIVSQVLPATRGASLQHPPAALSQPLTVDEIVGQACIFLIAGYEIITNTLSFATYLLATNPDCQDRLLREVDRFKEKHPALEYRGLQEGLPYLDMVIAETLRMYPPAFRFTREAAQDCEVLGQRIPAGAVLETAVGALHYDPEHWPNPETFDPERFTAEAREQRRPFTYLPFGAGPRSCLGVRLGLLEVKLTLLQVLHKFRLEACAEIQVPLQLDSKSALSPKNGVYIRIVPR
Excerpt: [Nature, Vol. 261, No. 6, 17-, (1976)].
The inhibitory action of the imidazole derivatives of this invention can be confirmed by determination of thromboxane B2 produced by thromboxane synthetase from prostaglandin H2 via thromboxane A2.

IC50	Compound
4 nM	CC(=Cc1ccc(Cn2ccnc2)cc1)C(=O)O [P-(1-imidazolylmethyl)-α-methylcinnamic acid hydrochloric acid salt]
